Assay results reported in patent US7998940B2, “Aptamers to von Willebrand factor and their use as thrombotic disease therapeutics” (Archemix Corp., priority 2004, dated 2011).
Where two headings read alike, the source gives them in different places. Oligonucleotides are written 5' to 3', each unit as a sugar letter and its base; * is a phosphorothioate linkage, no mark a phosphodiester; rarer units and linkages stand in square brackets, end groups in braces. Plain capitals give the bases only. [PEG] = polyethylene glycol spacer within the chain; [invdT] = inverted (3'-3') thymidine; d = 2'-deoxy (DNA); m = 2'-O-methyl; r = 2'-OH (RNA); f = 2'-fluoro

Tests used:
[1] = system: full length human vWF (SEQ ID NO 7); assay: dot blot KD determination and extent of binding, full length human vWF; details: for % binding @ 100 nM vWF: extent of aptamer binding at 100 nM full length human vWF; for Kd: full length human vWF, read-out: KD;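 as to all read-outs here: dot blot binding of aptamers to full length human vWF across a protein titration, incubated 30 minutes at room temperature in 1x DPBS with BSA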
Procedure: Based on this initial screen, KDs were determined for 3 of the vWF dependent binding sequences using the dot blot assay. […] A 12 point protein titration was used in the dot blot assay (300 nM, 100 nM, 30 nM, 10 nM, 3 nM, 1 nM, 300 pM, 100 pM, 30 pM, 10 pM, 3 pM, 0 pM) in 1×DPBS plus 0.1 mg/mL BSA at room temperature for 30 minutes.
An 8 point protein titration was used in the dot blot binding assay (100n M, 30 nM, 10 nM, 3 nM, 1 nM, 300 pM, 100 pM, 0 pM)) in 1× Dulbecco's PBS containing 0.1 BSA (final volume of 50 uL) for 30 minutes at room temperature.

[2] = molecular target: human vWF A1 domain (SEQ ID NO 5) (Homo sapiens, UniProt P04275, T1381A); assay: 3-point dot blot screen, human vWF A1 domain; assay type: binding; details: 100 nM human vWF A1 domain
Sequence of human vWF A1 domain (SEQ ID NO 5) (P04275 with tags, fused parts or gaps T1381A): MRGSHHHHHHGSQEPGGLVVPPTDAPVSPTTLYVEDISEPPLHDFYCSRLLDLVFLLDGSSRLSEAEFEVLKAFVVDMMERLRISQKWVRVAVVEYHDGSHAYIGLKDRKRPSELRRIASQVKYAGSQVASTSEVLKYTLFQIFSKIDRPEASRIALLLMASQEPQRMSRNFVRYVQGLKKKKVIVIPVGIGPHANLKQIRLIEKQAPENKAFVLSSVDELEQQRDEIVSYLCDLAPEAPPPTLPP
Excerpt: (§1) When a significant positive ratio of binding of RNA in the presence of human or rabbit vWF A1 domain versus in the absence of protein was seen, the pools were cloned using the TOPO TA cloning kit (Invitrogen, Cat. #45-0641, Carlsbad, Calif.) according to the manufacturer's instructions. Round 9 and 12 pool templates were cloned and sequenced (125 total sequences), producing 48 unique clones. All unique clones were transcribed, desalted, 5-^32P end-labeled, and assayed in a 3-point dot blot screen (no protein target control, 100 nM human vWF A1 domain (SEQ ID NO 5, FIG. 3), or 100 nM rabbit vWF A1 domain (SEQ ID NO 6, FIG. 3). The data is presented in the third and fourth columns of Table 4 below as the ratio of the fraction of the aptamer bound to the nitrocellulose in the presence of the target protein to the fraction of aptamer bound in the absence of the target protein.
(§2) When a significant positive ratio of binding of RNA in the presence of human or rabbit vWF A1 domain (SEQ ID NOS 4 and 6, respectively) versus in the absence of protein was seen, the pools were cloned using the TOPO TA cloning kit (Invitrogen Cat. #45-0641, Carlsbad, Calif.) according to the manufacturer's instructions. Round 9 and 12 pool templates were cloned and sequenced (185 total sequences), producing 78 unique clones within 3 sequence families. All unique clones were transcribed, desalted, 5-^32P end-labeled, and assayed in a 3-point dot blot screen (no protein target control, 100 nM human vWF A1 domain (SEQ ID NO 5), or 100 nM rabbit vWF A1 domain (SEQ ID NO 6). The data are presented in the third and fourth columns of Table 9 below as the ratio of the fraction of the aptamer bound to the nitrocellulose in the presence of the target protein to the fraction of aptamer bound in the absence of the target protein. Of the three sequence families, members of Family #1 and #2 and two individual, non-family aptamers, bound to both human vWF domain A1 (SEQ ID NO 5) and rabbit vWF domain A1 (SEQ ID NO 6).
(§3) All unique clones were assayed in a 3-point dot blot screen (no protein target control, 100 nM human vWF A1 domain (SEQ ID NO 5), or 100 nM rabbit vWF A1 domain (SEQ ID NO 6). The data are presented in the third and fourth columns of Table 14 below as the ratio of the fraction of the aptamer bound to the nitrocellulose in the presence of the target protein to the fraction of aptamer bound in the absence of the target protein.

[3] = system: rabbit vWF A1 domain (SEQ ID NO 6); assay: 3-point dot blot screen, rabbit vWF A1 domain; assay type: binding; details: 100 nM rabbit vWF A1 domain, ratio of fraction bound with target to without
Sequence of rabbit vWF A1 domain (SEQ ID NO 6) (as listed by the source): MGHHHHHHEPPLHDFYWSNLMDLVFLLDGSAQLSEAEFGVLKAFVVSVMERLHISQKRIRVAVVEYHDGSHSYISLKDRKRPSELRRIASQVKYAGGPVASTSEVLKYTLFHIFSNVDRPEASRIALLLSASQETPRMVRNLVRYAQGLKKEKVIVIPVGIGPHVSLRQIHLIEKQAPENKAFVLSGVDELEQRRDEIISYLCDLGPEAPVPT
Excerpt: as §1, §2, §3
When a significant positive ratio of binding of DNA in the presence of human or rabbit vWF A1 domain versus in the absence of protein was seen, the pools were cloned using the TOPO TA cloning kit (Invitrogen Cat. #45-0641, Carlsbad, Calif.) according to the manufacturer's instructions. Round 7 and 11 pool templates were cloned and sequenced (218 total sequences), producing 146 unique clones within 12 sequence families of which sequences from six families show vWF target binding activity. All unique clones were assayed twice in a 3-point dot blot screen (no protein target control, 20 nM full length human vWF (Calbiochem Cat. #681300, La Jolla, Calif.), or 20 nM rabbit vWF A1 domain. The data is presented in the third and fourth columns of Table 17 below as the ratio of the fraction of the aptamer bound to the nitrocellulose in the presence of the target protein to the fraction of aptamer bound in the absence of the target protein.

[4] = rRfY aptamers, ratio of fraction bound with target to fraction bound without target

| Molecule | % binding @ 100 nM vWF ([1]; Phase 2 modification) [%] | Kd ([1]; Phase 2 modification) [nM] | Screen- Human/No Protein [2, 4] | Screen- Rabbit/No Protein ([3]; rRfY aptamers) | other results |
| --- | --- | --- | --- | --- | --- |
| mCmGmUdGdCdAmGmUmGmCmCmUmUmUmGmGmCdCmG-s-TmGdCdGdGTmGmCdCmUdCdCmGmUmCmAmCmG-3T (mCmGmUdGdCdAmGmUmGmCmCmUmUmUmGmGmCdCmG*dTmGdCdGdGdTmGmCdCmUdCdCmGmUmCmAmCmG[invdT]; aptamer) [ARC1530] | – | – | – | – | % binding @ 100 nM vWF ([1]; Phase 4 and 5 modification): 19.2%; Kd ([1]; Phase 4 and 5 modification): 15 nM |
| mGmCmGmUdGdCdAmGmUmGmCmCPEGmGmGmCdCmG-s-TmGdCdGdGTmGmCdCmUdCdCmGmUdCmAmCmGmC-3T (mGmCmGmUdGdCdAmGmUmGmCmC[PEG]mGmGmCdCmG*dTmGdCdGdGdTmGmCdCmUdCdCmGmUdCmAmCmGmC[invdT]) [ARC1527] | – | – | – | – | % binding @ 100 nM vWF ([1]; Phase 4 and 5 modification): 14.1%; Kd ([1]; Phase 4 and 5 modification): 3.4 nM |
| mGmCmGmUdGdCdAmGmUmGmCmCPEGmGmGmCdCmG-s-TmGdCdGdGTmGmCdCmUdCdCmGmUmCmAmCmGmC-3T (mGmCmGmUdGdCdAmGmUmGmCmC[PEG]mGmGmCdCmG*dTmGdCdGdGdTmGmCdCmUdCdCmGmUmCmAmCmGmC[invdT]; aptamer) [ARC1528] | – | – | – | – | % binding @ 100 nM vWF ([1]; Phase 4 and 5 modification): 10.2%; Kd ([1]; Phase 4 and 5 modification): 4.2 nM |
| mGmCmGmUdGdCdAmGmUmGmCmCmUmUmCmGmGmCdCmG-s-TmGdCdGdGTmGmCdCmUdCdCmGmUmCmAmCmGmC-3T (mGmCmGmUdGdCdAmGmUmGmCmCmUmUmCmGmGmCdCmG*dTmGdCdGdGdTmGmCdCmUdCdCmGmUmCmAmCmGmC[invdT]) [ARC1524] | – | – | – | – | % binding @ 100 nM vWF ([1]; Phase 4 and 5 modification): 26.5%; Kd ([1]; Phase 4 and 5 modification): 5.7 nM |
| mGmCmGmUdGdCdAmGmUmGmCmCmUmUmUmGmGmCdCmG-s-TmGdCdGdGTmGmCdCmUdCdCmGmUmCmAmCmGmC-3T (mGmCmGmUdGdCdAmGmUmGmCmCmUmUmUmGmGmCdCmG*dTmGdCdGdGdTmGmCdCmUdCdCmGmUmCmAmCmGmC[invdT]) [ARC1526] | – | – | – | – | % binding @ 100 nM vWF ([1]; Phase 4 and 5 modification): 29.0%; Kd ([1]; Phase 4 and 5 modification): 4.7 nM |
| mGmGmCmGmU-s-dG-s-dC-s-dAmGmUmGmCmCmUmUmCmGmGmC-s-dCmG-s-TmG-s-dC-s-dG-s-dG-s-TmGmC-s-dCmU-s-dC-s-dCmGmUmCmAmCmGmCmC-3T (mGmGmCmGmU*dG*dC*dAmGmUmGmCmCmUmUmCmGmGmC*dCmG*dTmG*dC*dG*dG*dTmGmC*dCmU*dC*dCmGmUmCmAmCmGmCmC[invdT]) [ARC1345] | 29 | 12.1 | – | – | – |
| mGmGmCmGmUdG-s-dC-s-dAmGmUmGmCmCmUmUmCmGmGmC-s-dCmGTmGdC-s-dG-s-dGTmGmCdCmUdC-s-dCmGmUmCmAmCmGmCmC-3T (mGmGmCmGmUdG*dC*dAmGmUmGmCmCmUmUmCmGmGmC*dCmGdTmGdC*dG*dGdTmGmCdCmUdC*dCmGmUmCmAmCmGmCmC[invdT]) [ARC1344] | 17 | 4.8 | – | – | – |
| mGmGmCmGmUdG-s-dCdAmGmUmGmCmCmUmUmCmGmGmC-s-dCmGTmGdCdG-s-dGTmGmCdCmUdC-s-dCmGmUmCmAmCmGmCmC-3T (mGmGmCmGmUdG*dCdAmGmUmGmCmCmUmUmCmGmGmC*dCmGdTmGdCdG*dGdTmGmCdCmUdC*dCmGmUmCmAmCmGmCmC[invdT]) [ARC1343] | 21 | 23.9 | – | – | – |
| mGmGmCmGmUdGdCdAdGTdGdCdCTTdCdGdGdCdCdGTdGdCdGdGTdGdCdCTdCdCdGTdCmAmCmGmCmC-3T (mGmGmCmGmUdGdCdAdGdTdGdCdCdTdTdCdGdGdCdCdGdTdGdCdGdGdTdGdCdCdTdCdCdGdTdCmAmCmGmCmC[invdT]; aptamer) [ARC1338] | 21 | 7.4 | – | – | – |
| mGmGmCmGmUdGdCdAmGmUmGmCmCmUmUmCmGmGmCdCdGTdGdCdGdGTdGdCdCTdCdCdGTdCmAmCmGmCmC-3T (mGmGmCmGmUdGdCdAmGmUmGmCmCmUmUmCmGmGmCdCdGdTdGdCdGdGdTdGdCdCdTdCdCdGdTdCmAmCmGmCmC[invdT]; aptamer) [ARC1341] | 26 | 22.5 | – | – | – |
| mGmGmCmGmUdGdCdAmGmUmGmCmCmUmUmCmGmGmCdCmGTmGdCdGdGTmGmCdCmUdCdCmGmUmCmAmCmGmCmC-3T (mGmGmCmGmUdGdCdAmGmUmGmCmCmUmUmCmGmGmCdCmGdTmGdCdGdGdTmGmCdCmUdCdCmGmUmCmAmCmGmCmC[invdT]; aptamer) [ARC1342] | 33 | 15.6 | – | – | – |
| AMX201.B3: rRfY aptamer clone (nucleic acid) rGrGrArGfCrGfCrAfCfUfCrArGfCfCrAfCrArGrArGfCfCfCfUrGrArGfUrGfUrAfUrGrAfUfCrGfCfCrGrArGrAfUfCfUrAfUfCrGrAfUrGfCfUfUfUfUfUfCrGrAfCfCfUfCfUfCfUrGfCfUrArGfC | – | – | 1.69 | 1.64 | – |
| AMX201.B11: rRfY aptamer clone (nucleic acid) rGrGrArGfCrGfCrAfCfUfCrArGfCfCrAfCrAfCfCrGrArGrGfCfUrGrGrAfUrAfUfCfUrAfCrGrArGrArGrGrArArGfUrGfCfUrGfCfUfUrGrArAfUfUfUfCrGrAfCfCfUfCfUfCfUrGfCfUrArGfC | – | – | 1.55 | 1.52 | – |
| AMX201.D10: rRfY aptamer clone (nucleic acid) rGrGrArGfCrGfCrAfCfUfCrArGfCfCrAfCrAfCfUrGrArGrGfCfUrGrGrAfUrAfUfCfUrAfCrGrArGrArGrGrArArGfUrGfCfUrGfCfUfUrGrGrAfUfUfUfCrGrAfCfCfUfCfUfCfUrGfCfUrArGfC | – | – | 1.59 | 1.52 | – |
| AMX201.H4: rRfY aptamer clone (nucleic acid) rGrGrArGfCrGfCrAfCfUfCrArGfCfCrAfCfUrArAfCrGrGfUfUrGrAfUfCfUfCrArGrGrAfCfUrArAfUrArGfUfCrArAfCrArArGrGrAfUrGfCrGfUfUfUfCrGrAfCfCfUfCfUfCfUrGfCfUrArGfC | – | – | 1.79 | 1.86 | – |
| AMX201.H11: rRfY aptamer clone (nucleic acid) rGrGrArGfCrGfCrAfCfUfCrArGfCfCrAfCfCfCfUrGfUfCrGfUfCfUfUfUfUrGrGfUrArGfUfCrArGfCfCrArArArArGfCfUrArGfUfUrGrGfUfUrGfUfUfUfCrGrAfCfCfUfCfUfCfUrGfCfUrArGfC | – | – | 1.75 | 1.40 | – |
| AMX201.D4: rRfY aptamer clone (nucleic acid) rGrGrArGfCrGfCrAfCfUfCrArGfCfCrAfCfUrGrGrGrGfCfUrGrAfUfCfUfCrGfCrAfCrGrAfUrArGfUfUfCrGfUrGfUfCrArArGrGrAfUrGfCrGfUfUfUfUfCrGrAfCfCfUfCfUfCfUrGfCfUrArGfC | – | – | 2.23 | 2.46 | – |
| AMX201.D3: rRfY aptamer clone (nucleic acid) rGrGrArGfCrGfCrAfCfUfCrArGfCfCrAfCrGfCfCfCrAfCrGfUfCrArArAfUfUrAfUrArGfUfCfUrAfCfUfUfUrGrAfUrGfUrGfCfCfCrGfUrGrGfUfUfUfCrGrAfCfCfUfCfUfCfUrGfCfUrArGfC | – | – | 1.76 | 1.52 | – |
| AMX201.A8: rRfY aptamer clone (nucleic acid) rGrGrArGfCrGfCrAfCfUfCrArGfCfCrAfCrGfCfUrGfUrAfCrAfCfUrGrAfUrGfUfUrGfUrArAfCrAfUrGfUrAfCfCfCfCfCfUrGrGfCfUrGfUfUfUfCrGrAfCfCfUfCfUfCfUrGfCfUrArGfC | – | – | 1.82 | 1.51 | – |
| AMX205.A7: rRdY aptamer clone (nucleic acid) rGrGrArGdCrGdCrAdCdTdCrArGdCdCrAdCdTdCrArArGrGrGrGrGdTdCrGdCrGdTrGrGrGrGrAdCrGrArArGrGrGdTdTrGdCrArGdTrGdTrGdTdCrGdTdTdTdCrGrAdCdCdTdCdTdCdTrGdCdTrArGdC | – | – | – | – | Screen- Human/No Protein ([2]; rRdY aptamers, ratio of fraction bound with target to without): 1.24; Screen- Rabbit/No Protein ([3]; rRdY aptamers): 1.37 |
